Where “and” joins values, the source holds several entries; their conditions need not be identical. Equal entries are not always repeated. Entries after “also recorded” stand apart in the source; their conditions may differ.
How the values were obtained:
[1] = Salmon calcitonin/PTS893 monkey study: in vivo examinations (mortality, food consumption, clinical observations, body weight); parameters: species or system cynomolgus monkeys (Macaca fascicularis); details: males
Procedure: Solvent was used as vehicle for the control group.
The animals used in this analysis were cynomolgus monkeys (Macaca fascicularis), supplied by Centre de Recherches Primatologiques, Port Louis, Mauritius. Two animals were used per group and sex. […] Animals were examined daily for mortality, food consumption and clinical observations. Body weight was recorded once per week.
In vivo examinations. No significant histopathological changes were observed.

[2] = Salmon calcitonin/PTS893 monkey study: haematology; type: in vivo, cynomolgus monkeys (Macaca fascicularis);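 also: haematology parameters were measured in blood collected from a peripheral vein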
Procedure: Animals were fasted overnight before blood collection but had free access to water. Blood samples were taken from a peripheral vein. Standard haematology and clinical chemistry analysis were performed once during pretest and at the end of the treatment period. Blood samples were collected from each animal at the same intervals as described for the clinical chemistry investigations. The serum samples were deep-frozen (approximately −80° C.) until analyses for hormone determination.

[3] = test system: transcript abundance in organs; experiment: Salmon calcitonin/PTS893 monkey study: multiorgan gene expression profiling (HG-U95Av2 arrays); type: in vivo, cynomolgus monkeys (Macaca fascicularis); parameters: key: B = bone; K = kidney; M = muscle; P = pituitary; L = liver; T = trachea
Procedure: A set of tissues was selected for gene expression profiling. These set included samples from kidney, bone, muscle, duodenum, pituitary and liver.
HG-U95Av2 GeneChip® expression probe arrays (Affymetrix, Santa Clara Calif. USA) were used. […] Workstation 400 (Affymetrix).
Data analysis was performed with the Silicon Genetics software package GeneSpring version 4.2.1 and 5. Average difference values below 20 were set to 20.
The threshold range for considering as up or down regulation was determined within the context of the biological interpretation of the study.
Increase and decrease reported here refer to transcript abundance, unless specifically stated.

[4] = test system: gene expression in organs; experiment: Blind monkey trial of three peptides: gene expression profiling of organs on Affymetrix U95 chips; type: in vivo, cynomolgus monkeys; details: 100 μg/animal/day sc, two weeks; listed as Peptide 1
[5] = test system: Insulin-Like Growth Factor Binding Protein 2; experiment: Serum determination of insulin-like growth factor binding protein 2 in FGF23CTP-treated monkeys; type: in vivo, cynomolgus monkey
Procedure: At the end of the treatment period samples from all organs are subjected to snap freezing at necropsy and are analyzed with GeneChip® expression profiling.
Serum levels were determined for IGFB2 and found to be decreased, in agreement with the decreased transcript levels in several organs, including the liver.

[6] = Effects on Osteoblasts, autocrine/paracrine regulation of osteoblast function
[7] = Effects on Osteoblasts, endocrine regulation of osteoblast function
[8] = Effects on Osteoclasts: bone resorption by osteoclast
[9] = Effects on Osteoclasts: osteoclast determination, survival and differentiation
[10] = Extracellular matrix, collagen synthesis

Leu8, Asp10, Lysll, A1a16, G1n18, Thr33, A1a34 human PTH 1-34 [PTS893, Leu8, Asp10, Lysll, A1a16, G1n18, Thr33, A1a34 human PTH 1-34 [hPTH(1-34)]]
Food Consumption, Avg., Both animals ([1]; average of both animals of the group): 89.6
Food Consumption, Avg. ([1]; average per individual animal): 87.5 and 91.7
Food Consumption, Day 1 ([1]; day 1 of SC dosing, individual animals): 100
Food Consumption, Day 2 ([1]; day 2 of SC dosing, individual animals): 100
Food Consumption, Day 3 ([1]; day 3 of SC dosing, individual animals): 100
Food Consumption, Day 4 ([1]; day 4 of SC dosing, individual animals): 100
Food Consumption, Day 5 ([1]; day 5 of SC dosing, individual animals): 100
Food Consumption, Day 6 ([1]; day 6 of SC dosing, individual animals): 100
Food Consumption, Day 7 ([1]; day 7 of SC dosing, individual animals): 100
Food Consumption, Day 8 ([1]; day 8 of SC dosing, individual animals): 100
Food Consumption, Day 9 ([1]; day 9 of SC dosing, individual animals): 100
Food Consumption, Day 10 ([1]; day 10 of SC dosing, individual animals): 100
Food Consumption, Day 11 ([1]; day 11 of SC dosing, individual animals): 100
Food Consumption, Day 12 ([1]; day 12 of SC dosing, individual animals): 100
Food Consumption, Day 13 ([1]; day 13 of SC dosing, individual animals): 50 and 100
Food Consumption, Day 14 ([1]; day 14 of SC dosing, individual animals): 75 and 100
Food Consumption, Day −1 ([1]; day −1 (before dosing), individual animals): 100
Food Consumption, Day −2 ([1]; day −2 (before dosing), individual animals): 75 and 100
Food Consumption, Day −3 ([1]; day −3 (before dosing), individual animals): 100
Food Consumption, Day −4 ([1]; day −4 (before dosing), individual animals): 100
Food Consumption, Day −5 ([1]; day −5 (before dosing), individual animals): 100
Food Consumption, Day −6 ([1]; day −6 (before dosing), individual animals): 50
Haematology L ([2]; females, d7): 6.29 pg/ml and 5.87 pg/ml
Haematology M ([2]; females, d7): 0.44 nmol/l
Haematology MCH ([2]; females, d7): 18.9 ng/ml and 19.0 ng/ml
Haematology N ([2]; females, d7): 10.8 nmol/l and 5.49 nmol/l
Haematology PCV ([2]; females, d7): 0.41 mU/l and 0.43 mU/l
Haematology PLAT ([2]; females, d7): 525 nmol/l and 382 nmol/l
Haematology RBC ([2]; females, d7): 6.2 nmol/l and 6.4 nmol/l
Haematology E ([2]; females, d13): 0.21 mUI/l and 0.29 mUI/l
Haematology HB ([2]; females, d13): 11.3
Haematology L ([2]; females, d13): 5.81 pg/ml and 5.21 pg/ml
Haematology MCH ([2]; females, d13): 19.3 ng/ml and 19.2 ng/ml
Haematology MCHC ([2]; females, d13): 28.6 pg/ml and 29.2 pg/ml
Haematology N ([2]; females, d13): 6.36 nmol/l and 4.18 nmol/l
Haematology PCV ([2]; females, d13): 0.40 mU/l and 0.39 mU/l
Haematology PLAT ([2]; females, d13): 496 nmol/l and 309 nmol/l
Haematology RBC ([2]; females, d13): 5.9 nmol/l
Haematology L ([2]; females, d−8 (before dosing)): 3.92 pg/ml and 4.40 pg/ml
Haematology M ([2]; females, d−8 (before dosing)): 0.80 nmol/l and 0.54 nmol/l
Haematology MCH ([2]; females, d−8 (before dosing)): 19.3 ng/ml
Haematology MCHC ([2]; females, d−8 (before dosing)): 30.6 pg/ml and 30.2 pg/ml
Haematology N ([2]; females, d−8 (before dosing)): 5.34 nmol/l and 9.05 nmol/l
Haematology PCV ([2]; females, d−8 (before dosing)): 0.44 mU/l and 0.43 mU/l
Haematology RBC ([2]; females, d−8 (before dosing)): 6.9 nmol/l and 6.7 nmol/l
Haematology B ([2]; males, d7): 0.02 G/l and 0.03 G/l
Haematology HB ([2]; males, d7): 11.3 g/dl and 11.9 g/dl
Haematology L ([2]; males, d7): 5.91 G/l and 5.30 G/l
Haematology MCH ([2]; males, d7): 17.7 pg and 20.2 pg
Haematology MCHC ([2]; males, d7): 29.3 g/dl and 30.2 g/dl
Haematology MCV ([2]; males, d7): 60 fl and 67 fl
Haematology PCV ([2]; males, d7): 0.38 l/l and 0.40 l/l
Haematology PLAT ([2]; males, d7): 456 G/l and 589 G/l
Haematology RBC ([2]; males, d7): 6.4 T/l and 5.9 T/l
Haematology WBC ([2]; males, d7): 8.4 G/l and 15.0 G/l
Haematology B ([2]; males, d13): 0.04 G/l and 0.03 G/l
Haematology HB ([2]; males, d13): 11.7 g/dl and 11.8 g/dl
Haematology L ([2]; males, d13): 5.37 G/l and 4.86 G/l
Haematology M ([2]; males, d13): 0.27 G/l and 0.46 G/l
Haematology MCH ([2]; males, d13): 17.3 pg and 20.3 pg
Haematology MCHC ([2]; males, d13): 27.5 g/dl and 29.2 g/dl
Haematology MCV ([2]; males, d13): 63 fl and 70 fl
Haematology PCV ([2]; males, d13): 0.43 l/l and 0.41 l/l
Haematology PLAT ([2]; males, d13): 330 G/l and 452 G/l
Haematology RBC ([2]; males, d13): 6.8 T/l and 5.8 T/l
Haematology WBC ([2]; males, d13): 8.8 G/l and 11.9 G/l
Haematology HB ([2]; males, d−6 (before dosing)): 13.6 g/dl and 13.2 g/dl
Haematology L ([2]; males, d−6 (before dosing)): 5.07 G/l and 3.99 G/l
Haematology MCH ([2]; males, d−6 (before dosing)): 18.0 pg and 20.4 pg
Haematology MCHC ([2]; males, d−6 (before dosing)): 31.5 g/dl and 33.1 g/dl
Haematology MCV ([2]; males, d−6 (before dosing)): 57 fl and 62 fl
Haematology N ([2]; males, d−6 (before dosing)): 4.45 G/l and 4.80 G/l
Haematology PCV ([2]; males, d−6 (before dosing)): 0.43 l/l and 0.40 l/l
Haematology PLAT ([2]; males, d−6 (before dosing)): 325 G/l and 459 G/l
Haematology RBC ([2]; males, d−6 (before dosing)): 7.6 T/l and 6.5 T/l
Haematology WBC ([2]; males, d−6 (before dosing)): 10.4 G/l and 9.1 G/l
Organs where changes in expression were seen: Cyclin-dependent kinases 5, 6, 10 ([3]; Cell cycle): B
Organs where changes in expression were seen: Cyclin-dependent kinases inhibitor 1A, 1C, 2D) ([3]; Cell cycle): B
Organs where changes in expression were seen: Cyclins (A, A2, B1, C, D2, E2, G1, G2) ([3]; Cell cycle): B
Organs where changes in expression were seen: Bone Morphogenetic Proteins [3, 6]: B
Organs where changes in expression were seen: Fibroblast Growth Factors [3, 6]: B
Organs where changes in expression were seen: Insulin-like Growth Factors [3, 6]: B
Organs where changes in expression were seen: TGFs [3, 6]: B
Organs where changes in expression were seen: Tob [3, 6]: B
Organs where changes in expression were seen: Activin [3, 7]: B
Organs where changes in expression were seen: Retinoic receptor X [3, 7]: B
Organs where changes in expression were seen: Y-box binding protein ([3]; Effects on Osteoblasts, transcription factor that regulates collagen type 1 synthesis): B
Organs where changes in expression were seen: H+ ATP-ases [3, 8]: B
Organs where changes in expression were seen: ODF/OPGL: osteoprotegerin ligand [3, 8]: B
Organs where changes in expression were seen: Granulocyte to macrophage colony-stimulating factor (CSF1) [3, 9]: B
Organs where changes in expression were seen: Monocyte to macrophage differentiation associate (MMD) [3, 9]: B
Organs where changes in expression were seen: PU.1 (SPI1) [3, 9]: B
Organs where changes in expression were seen: Aggrecan ([3]; Extracellular matrix component): B
Organs where changes in expression were seen: Chondroitin sulphate proteoglycan ([3]; Extracellular matrix component): B
Organs where changes in expression were seen: Dermatopontin ([3]; Extracellular matrix component): B
Organs where changes in expression were seen: Heparan sulphate proteoglycan ([3]; Extracellular matrix component): B
Organs where changes in expression were seen: Syndecan ([3]; Extracellular matrix component): B
Organs where changes in expression were seen: Integrins ([3]; Extracellular matrix, cell attachment, signal transduction): B
Organs where changes in expression were seen: Lysyl hydroxylase [3, 10]: B
Organs where changes in expression were seen: Procollagen endopeptidase/proteinase [3, 10]: B
Organs where changes in expression were seen: Adenylate cyclase ([3]; Signal transduction): B
Organs where changes in expression were seen: CREM ([3]; Signal transduction): B
Organs where changes in expression were seen: Calcyclin binding protein ([3]; Signal transduction): B
Organs where changes in expression were seen: MAPK ([3]; Signal transduction): B
Organs where changes in expression were seen: Phosphatidylinositol pathway ([3]; Signal transduction): B
Organs where changes in expression were seen: Phosphodiesterase (IB, 4A, 4B) ([3]; Signal transduction): B
Organs where changes in expression were seen: Phospholipase (C, D) ([3]; Signal transduction): B
Organs where changes in expression were seen: SMAD pathway ([3]; Signal transduction): B
Organs where changes in expression were seen: STAT pathway ([3]; Signal transduction): B
Organs where changes in expression were seen: Amelogenin (cement component) ([3]; cynomolgus monkey, in vivo): B
Organs where changes in expression were seen: Dentin (mineral matrix protein) ([3]; cynomolgus monkey, in vivo): B
Organs where changes in expression were seen: VEGF ([3]; cynomolgus monkey, in vivo): B

cyclo[4-(NH2—C2H4—NH—CO—O)Pro-Phg-DTrp-Lys-Tyr(4-Bzl)-Phe] [SOM230]
Conclusions of the in vivo Profiling by the Data Mining Team: Function/Pathway [4]: Anti-growth activity; also recorded: GI tract/pancreatic; also recorded: Immunosuppression
Findings by the Data Mining Team: Adrenals (gene with direction) [4]: IGF2−; also recorded: somatostatin−; also recorded: insulin receptor+; also recorded: urocortin+
Findings by the Data Mining Team: Bone marrow (gene with direction) [4]: VIP− and peptide YY− and cyclin− and GAPDH−
Findings by the Data Mining Team: Kidney (gene with direction) [4]: Solute carrier protein 9++; also recorded: urocortin+; also recorded: IGF2−; also recorded: beta 2−; also recorded: THRα+
Findings by the Data Mining Team: Liver (gene with direction) [4]: IGF2− and NMDA receptor+ and glutamate dehydrogenase+ and VIP and insulin− induced protein1 and STR5
Findings by the Data Mining Team: Pituitary (gene with direction) [4]: IGFR1− and GH1/2− and CSH(L)− and TSH− and CHRH2− and synthase++ and Immunoglobulin−−
Findings by the Data Mining Team: Spleen (gene with direction) [4]: IGF2− and IGBP6− and insulin receptor− and urocortin+ and Ig− and ribosomal protein −− and Nk cells+
Findings by the Data Mining Team: Stomach (gene with direction) [4]: Gastrin+; also recorded: hypocretin+; also recorded: glutamate receptor+; also recorded: GABAB−
Findings by the Data Mining Team: Thymus (gene with direction) [4]: IGFBP1+ and MHC classII− and Ig− and FKBP12− and CD4− and defensin alpha1+,
Findings by the Data Mining Team: Thyroid (gene with direction) [4]: NPY− and cyclins−− and ATPase calcium channel+ and somatostatin receptor 4−,

B1: FGF23CTP: unique 75-mer COOH-terminal peptide of FGF-23, SEQ ID NO: 2 (peptide, listed as Homo sapiens)
chain: HTRSAEDDSERDPLNVLKPRARMTPAPASCSQELPSAEDNSPMASDPLGVVRGGRVNTHAGGTGPEGCRPFAKFI
Serum Insulin-Like Growth Factor Binding Protein 2, mean ([5]; 100 μg/day): 893 ng/mL
Serum Insulin-Like Growth Factor Binding Protein 2, conc ([5]; individual animals, 100 μg/day): 987.6 ng/mL and 596.7 ng/mL and 749.5 ng/mL and 1239.8 ng/mL
Serum protein levels of circulating IGF2-binding protein ([5]; treated animals, two weeks sc): decreased
